Results: PubChem BioAssay (NCI)
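48-hour exposure; five concentrations; linearly interpolated endpoints. Here, GI50 denotes the concentration required for 50% inhibition of growth. TGI: total growth inhibition.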

Assays:
Test in all cases: DTP human tumour cell line panel, 48 h
[1] = tested on: 786-0 renal
[2] = tested on: A549 NSCLC
[3] = tested on: ACHN renal
[4] = tested on: CAKI-1 renal
[5] = tested on: CCRF-CEM leukemia
[6] = tested on: COLO 205 colon
[7] = tested on: DU-145 prostate
[8] = tested on: EKVX NSCLC
[9] = tested on: HCC-2998 colon
[10] = tested on: HCT-116 colon
[11] = tested on: HCT-15 colon
[12] = tested on: HOP-62 NSCLC
[13] = tested on: HOP-92 NSCLC
[14] = tested on: HS 578T breast
[15] = tested on: HT29 colon
[16] = tested on: IGROV1 ovarian
[17] = tested on: K-562 leukemia
[18] = tested on: KM12 colon
[19] = tested on: LOX IMVI melanoma
[20] = tested on: M14 melanoma
[21] = tested on: MALME-3M melanoma
[22] = tested on: MCF7 breast
[23] = tested on: MDA-MB-231 breast
[24] = tested on: MDA-MB-435
[25] = tested on: MOLT-4 leukemia
[26] = tested on: NCI-H226 lung
[27] = tested on: NCI-H23 lung
[28] = tested on: NCI-H460 lung
[29] = tested on: NCI-H522 lung
[30] = tested on: NCI/ADR-RES ovarian
[31] = tested on: OVCAR-3 ovarian
[32] = tested on: OVCAR-4 ovarian
[33] = tested on: OVCAR-5 ovarian
[34] = tested on: OVCAR-8 ovarian
[35] = tested on: PC-3 prostate
[36] = tested on: RPMI-8226 leukemia
[37] = tested on: SF-268 CNS
[38] = tested on: SF-295 CNS
[39] = tested on: SK-MEL-2 melanoma
[40] = tested on: SK-MEL-28 melanoma
[41] = tested on: SK-MEL-5 melanoma
[42] = tested on: SK-OV-3 ovarian
[43] = tested on: SN12C renal
[44] = tested on: SNB-19 CNS
[45] = tested on: SNB-75 CNS
[46] = tested on: SR leukemia
[47] = tested on: SW-620 colon
[48] = tested on: T-47D breast
[49] = tested on: TK-10 renal
[50] = tested on: U251 CNS
[51] = tested on: UACC-62 melanoma
[52] = tested on: UO-31 renal
[53] = tested on: A498 renal
[54] = tested on: BT-549 breast
[55] = tested on: HL-60(TB) leukemia
[56] = tested on: RXF 393 renal
[57] = tested on: SF-539 CNS
[58] = tested on: UACC-257 melanoma

## C[C@]12CCC3c4ccc(O)cc4CCC3C1CC[C@@H]2NC(=O)/C=C/c1ccc(O)c(O)c1 (stereo partly drawn)
[1]
  GI50: 10.4 µM
  TGI: 29.2 µM
[2]
  GI50: 15.5 µM
  TGI: 31.8 µM
[3]
  GI50: 12.4 µM
  TGI: 25.1 µM
[4]
  GI50: 16.4 µM
  TGI: 48.4 µM
[5]
  GI50: 3.2 µM
  TGI: 30 µM
[6]
  GI50: 13.1 µM
  TGI: 32.9 µM
[7]
  GI50: 13.1 µM
  TGI: 32.5 µM
[8]
  GI50: 10.2 µM
  TGI: 31.2 µM
[9]
  GI50: 15.6 µM
  TGI: 30.3 µM
[10]
  GI50: 10.6 µM
  TGI: 23 µM
[11]
  GI50: 4.89 µM
  TGI: 19 µM
[12]
  GI50: 16.1 µM
  TGI: 35.9 µM
[13]
  GI50: 5.59 µM
  TGI: 25.1 µM
[14]
  GI50: 15.4 µM
  TGI: > 100 µM
[15]
  GI50: 3.97 µM
  TGI: 15.4 µM
[16]
  GI50: 12.1 µM
  TGI: 32.2 µM
[17]
  GI50: 6.51 µM
  TGI: 55.4 µM
[18]
  GI50: 34.2 µM
  TGI: > 100 µM
[19]
  GI50: 3.86 µM
  TGI: 17.8 µM
[20]
  GI50: 10.6 µM
  TGI: 22.9 µM
[21]
  GI50: 25.1 µM
  TGI: 70.9 µM
[22]
  GI50: 16.1 µM
  TGI: 49.1 µM
[23]
  GI50: 14.5 µM
  TGI: 33.6 µM
[24]
  GI50: 13.6 µM
  TGI: 39.1 µM
[25]
  GI50: 3.34 µM
  TGI: 24 µM
[26]
  GI50: 12.3 µM
  TGI: 37.9 µM
[27]
  GI50: 11.8 µM
  TGI: 28.5 µM
[28]
  GI50: 11.9 µM
  TGI: 35.3 µM
[29]
  GI50: 6.25 µM
  TGI: 27.4 µM
[30]
  GI50: 16.2 µM
  TGI: 41.7 µM
[31]
  GI50: 21.5 µM
  TGI: 48.7 µM
[32]
  GI50: 5.94 µM
  TGI: 24.7 µM
[33]
  GI50: 18.1 µM
  TGI: 35.9 µM
[34]
  GI50: 10.4 µM
  TGI: 29.1 µM
[35]
  GI50: 3.94 µM
  TGI: 40.5 µM
[36]
  GI50: 4.39 µM
  TGI: 24.8 µM
[37]
  GI50: 11.2 µM
  TGI: 45.3 µM
[38]
  GI50: 18.5 µM
  TGI: 44.8 µM
[39]
  GI50: 20.6 µM
  TGI: 51.3 µM
[40]
  GI50: 9.59 µM
  TGI: 24.5 µM
[41]
  GI50: 10.5 µM
  TGI: 25.2 µM
[42]
  GI50: 14.8 µM
  TGI: 31.6 µM
[43]
  GI50: 13.4 µM
  TGI: 34.2 µM
[44]
  GI50: 13.7 µM
  TGI: 33.9 µM
[45]
  GI50: 2.66 µM
  TGI: 9.36 µM
[46]
  GI50: 7.26 µM
  TGI: 42 µM
[47]
  GI50: 15.9 µM
  TGI: 45 µM
[48]
  GI50: 9.57 µM
  TGI: > 100 µM
[49]
  GI50: 13.8 µM
  TGI: 50.6 µM
[50]
  GI50: 6.63 µM
  TGI: 21.1 µM
[51]
  GI50: 11.5 µM
  TGI: 24.4 µM
[52]
  GI50: 11.9 µM
  TGI: 47 µM

## CSCc1ncc(-c2ccc(C(F)(F)F)cc2)c(NC2CCCCCC2)n1
[1]
  GI50: > 10 µM
  TGI: > 10 µM
[53]
  GI50: > 10 µM
  TGI: > 10 µM
[2]
  GI50: > 10 µM
  TGI: > 10 µM
[3]
  GI50: > 10 µM
  TGI: > 10 µM
[54]
  GI50: > 10 µM
  TGI: > 10 µM
[4]
  GI50: > 10 µM
  TGI: > 10 µM
[5]
  GI50: > 10 µM
  TGI: > 10 µM
[6]
  GI50: > 10 µM
  TGI: > 10 µM
[7]
  GI50: > 10 µM
  TGI: > 10 µM
[9]
  GI50: > 10 µM
  TGI: > 10 µM
[10]
  GI50: > 10 µM
  TGI: > 10 µM
[11]
  GI50: > 10 µM
  TGI: > 10 µM
[55]
  GI50: > 10 µM
  TGI: > 10 µM
[12]
  GI50: > 10 µM
  TGI: > 10 µM
[15]
  GI50: > 10 µM
  TGI: > 10 µM
[16]
  GI50: > 10 µM
  TGI: > 10 µM
[17]
  GI50: > 10 µM
  TGI: > 10 µM
[18]
  GI50: > 10 µM
  TGI: > 10 µM
[19]
  GI50: > 10 µM
  TGI: > 10 µM
[20]
  GI50: > 10 µM
  TGI: > 10 µM
[21]
  GI50: > 10 µM
  TGI: > 10 µM
[22]
  GI50: > 10 µM
  TGI: > 10 µM
[23]
  GI50: > 10 µM
  TGI: > 10 µM
[24]
  GI50: > 10 µM
  TGI: > 10 µM
[25]
  GI50: > 10 µM
  TGI: > 10 µM
[26]
  GI50: > 10 µM
  TGI: > 10 µM
[27]
  GI50: > 10 µM
  TGI: > 10 µM
[28]
  GI50: > 10 µM
  TGI: > 10 µM
[30]
  GI50: > 10 µM
  TGI: > 10 µM
[31]
  GI50: > 10 µM
  TGI: > 10 µM
[32]
  GI50: > 10 µM
  TGI: > 10 µM
[33]
  GI50: > 10 µM
  TGI: > 10 µM
[34]
  GI50: > 10 µM
  TGI: > 10 µM
[35]
  GI50: > 10 µM
  TGI: > 10 µM
[36]
  GI50: > 10 µM
  TGI: > 10 µM
[56]
  GI50: > 10 µM
  TGI: > 10 µM
[37]
  GI50: > 10 µM
  TGI: > 10 µM
[38]
  GI50: > 10 µM
  TGI: > 10 µM
[57]
  GI50: > 10 µM
  TGI: > 10 µM
[39]
  GI50: > 10 µM
  TGI: > 10 µM
[40]
  GI50: > 10 µM
  TGI: > 10 µM
[41]
  GI50: > 10 µM
  TGI: > 10 µM
[42]
  GI50: > 10 µM
  TGI: > 10 µM
[43]
  GI50: > 10 µM
  TGI: > 10 µM
[44]
  GI50: > 10 µM
  TGI: > 10 µM
[45]
  GI50: > 10 µM
  TGI: > 10 µM
[46]
  GI50: > 10 µM
  TGI: > 10 µM
[47]
  GI50: > 10 µM
  TGI: > 10 µM
[48]
  GI50: > 10 µM
  TGI: > 10 µM
[49]
  GI50: > 10 µM
  TGI: > 10 µM
[50]
  GI50: > 10 µM
  TGI: > 10 µM
[58]
  GI50: > 10 µM
  TGI: > 10 µM
[51]
  GI50: > 10 µM
  TGI: > 10 µM
[52]
  GI50: > 10 µM
  TGI: > 10 µM

## C=C1c2nc3ccccc3n2C=C(c2ccccc2)N1c1ccc(C)cc1
[1]
  TGI: > 100 µM
[53]
  TGI: > 100 µM
[2]
  TGI: > 100 µM
[3]
  TGI: > 100 µM
[54]
  TGI: > 100 µM
[4]
  TGI: > 100 µM
[5]
  TGI: > 100 µM
[6]
  TGI: > 100 µM
[7]
  TGI: > 100 µM
[8]
  TGI: > 100 µM
[9]
  TGI: 36.7 µM
[10]
  TGI: > 100 µM
[11]
  TGI: > 100 µM
[13]
  TGI: > 100 µM
[16]
  TGI: > 100 µM
[17]
  TGI: > 100 µM
[18]
  TGI: 56.1 µM
[19]
  TGI: > 100 µM
[20]
  TGI: > 100 µM
[21]
  TGI: > 100 µM
[22]
  TGI: > 100 µM
[23]
  TGI: > 100 µM
[24]
  TGI: > 100 µM
[25]
  TGI: > 100 µM
[26]
  TGI: > 100 µM
[27]
  TGI: > 100 µM
[28]
  TGI: > 100 µM
[29]
  TGI: > 100 µM
[30]
  TGI: > 100 µM
[31]
  TGI: > 100 µM
[32]
  TGI: > 100 µM
[33]
  TGI: > 100 µM
[34]
  TGI: > 100 µM
[35]
  TGI: > 100 µM
[36]
  TGI: > 100 µM
[56]
  TGI: > 100 µM
[38]
  TGI: > 100 µM
[57]
  TGI: > 100 µM
[39]
  TGI: > 100 µM
[41]
  TGI: > 100 µM
[42]
  TGI: > 100 µM
[43]
  TGI: > 100 µM
[44]
  TGI: > 100 µM
[45]
  TGI: > 100 µM
[46]
  TGI: > 100 µM
[47]
  TGI: > 100 µM
[49]
  TGI: > 100 µM
[50]
  TGI: > 100 µM
[58]
  TGI: > 100 µM
[51]
  TGI: > 100 µM
[52]
  TGI: > 100 µM
